Experimental data: US12491180B2, “Application of compound in treating pneumonia” (SHENZHEN OPTIMUM BIOLOGICAL TECHNOLOGY CO., LTD., priority 2019, dated 2025)
≈ marks a conversion by molar mass, not a printed value.

Assays:
[1] = tested on: Klebsiella pneumoniae 8733; assay: MIC, solid dilution method; type: cell-based; conditions: K.p 8733, CSE clinical isolate, MHA agar, 37° C., 16-20 hours, read-out: MIC
Experimental: (§1) (2) Clinical isolated strains: CRE Klebsiella pneumoniae 5846, 11544, 12559, 13249 and CSE Klebsiella pneumoniae 8733, a total of 5 strains;
(§2) The above-mentioned glycerol-preserved strains were taken out from the −80° C. refrigerator, streaked and inoculated on MHA plates, labeled, and cultured overnight in a 37° C. incubator.
(§3) The inoculum was prepared directly from bacterial suspension, and several recovered colonies were picked and directly prepared into a bacterial suspension with a turbidity of No. 0.5 McFarland units in normal saline, and a 10-fold dilution was made during inoculation.
(§4) 6 bottles of MHA culture medium 500 mL/bottle were prepared, and the pH was adjusted to 7.2-7.4, sterilized at 121° C. for 15 min, and the medium was placed in a 55° C. water bath to keep warm.
(§5) Sterile blank petri dishes were taken, and marked with each FL drug/concentration according to 2-fold dilution, and 10 concentrations of each drug starting from 8 μg/mL were tested.
(§6) […]; 20 mL was aspirated and added to a petri dish consistent with the mark, and then 20 mL of MHA culture medium was added to the rest of the drug-containing culture medium, mixed evenly, that is, the 2-fold diluted drug-containing culture medium; 20 mL was aspirated and added to the petri dish consistent with the mark, and then diluted to the 10th concentration and the […] respectively by repeating the above-mentioned steps, and then poured into the petri dish.
(§7) 4 bacterial control petri dishes without drug were prepared at the same time as a control.
(§8) The positioning needle and the inoculation needle were installed according to the order of placement of the colony on the inoculation plate. After inoculation, a bacterial solution circle was formed on the petri dish. After the bacterial solution was absorbed by the agar, the petri dish was placed in an incubator at 37° C. for overnight incubation (16-20 hours), and then taken out.
(§9) The minimum inhibitory concentrations of the compounds against the CRE and CSE strains were determined by the solid dilution method, and the results are shown in Tables 3 and 4.

[2] = tested on: Klebsiella pneumoniae 11544; assay: MIC, solid dilution method; type: cell-based; conditions: K.p 11544, CRE clinical isolate, MHA agar, 37° C., 16-20 hours, read-out: MIC
Experimental: as §1, §2, §3, §4, §5, §6, §7, §8, §9

[3] = tested on: Klebsiella pneumoniae 13249; assay: MIC, solid dilution method; type: cell-based; conditions: K.p 13249, CRE clinical isolate, MHA agar, 37° C., 16-20 hours, read-out: MIC
Experimental: as §1, §2, §3, §4, §5, §6, §7, §8, §9

[4] = tested on: Klebsiella pneumoniae 5846; assay: MIC, solid dilution method; type: cell-based; conditions: K.p 5846, CRE clinical isolate, MHA agar, 37° C., 16-20 hours, read-out: MIC
Experimental: as §1, §2, §3, §4, §5, §6, §7, §8, §9

[5] = tested on: Klebsiella pneumoniae BAA-1705; assay: MIC, solid dilution method; type: cell-based; conditions: BAA1705, K.p BAA-1705, standard strain, MHA agar, 37° C., 16-20 hours, read-out: MIC
Experimental: (§10) (1) Standard strains: Escherichia coli BAA-2452, Escherichia coli ATCC25922, Klebsiella pneumoniae BAA-1705; all purchased from ATCC.
as §2, §3, §4, §5, §6, §7, §8, §9

[6] = tested on: Escherichia coli BAA-2452; assay: MIC, solid dilution method; type: cell-based; conditions: BAA2452, E. coli BAA-2452, standard strain, MHA agar, 37° C., 16-20 hours, read-out: MIC
Experimental: as §10, §2, §3, §4, §5, §6, §7, §8, §9

[7] = tested on: Escherichia coli ATCC25922; assay: MIC, solid dilution method; type: cell-based; conditions: E. coli ATCC25922, standard strain, MHA agar, 37° C., 16-20 hours, read-out: MIC
Experimental: as §10, §2, §3, §4, §5, §6, §7, §8, §9

[8] = tested on: E. ae 14186; assay: MIC, solid dilution method; type: cell-based, Enterobacter aerogenes; conditions: Klebsiella aerogenes; E. ae 14186; MHA agar, 37° C., 16-20 hours; read-out: MIC
Experimental: as §2, §3, §4, §5, §6, §7, §8, §9

[9] = tested on: Enterobacter aerogenes 8193; assay: MIC, solid dilution method; type: cell-based; conditions: Klebsiella aerogenes; E. ae 8193, CRE clinical isolate; MHA agar, 37° C., 16-20 hours; read-out: MIC
Experimental: CRE Enterobacter aerogenes 8193, a total of 1 strain;
as §2, §3, §4, §5, §6, §7, §8, §9

[10] = tested on: 16 clinical CRE strains; assay: MIC50, MIC90 and MIC range against 16 clinical CRE strains; type: cell-based; conditions: 16 clinical CRE strains; for MIC50: read-out: MIC50; for MIC90: read-out: MIC90
Experimental: as §2, §3, §4, §5, §6, §7, §8, §9

[11] = tested on: Enterobacter cloacae 11699; assay: MIC, solid dilution method; type: cell-based; conditions: E. cl 11699, CSE clinical isolate, MHA agar, 37° C., 16-20 hours, read-out: MIC
Experimental: as §2, §3, §5, §7, §8

[12] = tested on: Enterobacter cloacae 11090; assay: MIC, solid dilution method; type: cell-based; conditions: E. cl 11090, CRE clinical isolate, MHA agar, 37° C., 16-20 hours, read-out: MIC
Experimental: as §2, §3, §5, §7, §8

[13] = tested on: Enterobacter cloacae 14653; assay: MIC, solid dilution method; type: cell-based; conditions: E. cl 14653, CRE clinical isolate, MHA agar, 37° C., 16-20 hours, read-out: MIC
Experimental: as §2, §3, §5, §7, §8

[14] = tested on: Acinetobacter baumannii 8476; assay: MIC, solid dilution method; type: cell-based; conditions: A.B 8476, CRE clinical isolate, MHA agar, 37° C., 16-20 hours, read-out: MIC
Experimental: (§11) CRE Acinetobacter baumannii 8476, 6383, a total of 2 strains; CRE Serratia marcescens 14541, a total of 1 strain; all collected in the Department of Infectious Diseases, West China Hospital, Chengdu, Sichuan Province, and kept in our laboratory.
as §2, §3, §4, §5, §6, §7, §8, §9

[15] = tested on: Serratia marcescens 14541; assay: MIC, solid dilution method; type: cell-based; conditions: Sma 14541, CRE clinical isolate, MHA agar, 37° C., 16-20 hours, read-out: MIC
Experimental: as §11, §2, §3, §4, §5, §6, §7, §8, §9

[16] = tested on: Acinetobacter baumannii 6383; assay: MIC, solid dilution method; type: cell-based; conditions: A.B 6383, CRE clinical isolate, MHA agar, 37° C., 16-20 hours, read-out: MIC
Experimental: as §11, §2, §3, §4, §5, §6, §7, §8, §9

[17] = tested on: Citrobacter freundii 9484; assay: MIC, solid dilution method; type: cell-based; conditions: C.f 9484, CRE clinical isolate, MHA agar, 37° C., 16-20 hours, read-out: MIC
Experimental: (§12) CRE Citrobacter freundii 9434, 9484 and CSE Citrobacter freundii 7646, a total of 3 strains;
as §2, §3, §4, §5, §6, §7, §8, §9

[18] = tested on: Citrobacter freundii 7646; assay: MIC, solid dilution method; type: cell-based; conditions: C.f 7646, CSE clinical isolate, MHA agar, 37° C., 16-20 hours, read-out: MIC
Experimental: as §12, §2, §3, §4, §5, §6, §7, §8, §9

[19] = tested on: Citrobacter freundii 9434; assay: MIC, solid dilution method; type: cell-based; conditions: C.f 9434, CRE clinical isolate, MHA agar, 37° C., 16-20 hours, read-out: MIC
Experimental: as §12, §2, §3, §4, §5, §6, §7, §8, §9

Row | SMILES | MIC [1] [µg/mL] | MIC [2] [µg/mL] | MIC [3] [µg/mL] | MIC [4] [µg/mL] | MIC [5] [µg/mL] | MIC [6] [µg/mL] | MIC [7] [µg/mL] | MIC [8] [µg/mL] | MIC [9] [µg/mL] | MIC50 [10] [µg/mL] | MIC90 [10] [µg/mL] | MIC [11] [µg/mL] | MIC [12] [µg/mL] | MIC [13] [µg/mL] | MIC [14] [µg/mL] | MIC [15] [µg/mL] | MIC [16] [µg/mL] | MIC [17] [µg/mL] | MIC [18] [µg/mL] | MIC [19] [µg/mL] | further results
1 | CC1(C)[C@H](NC(=O)/C(=N\O[C@@H](COc2ccc(C(=N)N[C@@H]3CCCNC3)cc2)C(=O)O)c2csc(N)n2)C(=O)N1OS(=O)(=O)O [AIC499, reference compound] | 0.25 (≈ 0.374 µM) | > 8 | > 8 | 0.25 (≈ 0.374 µM) | 1 (≈ 1.5 µM) | 0.5 (≈ 0.748 µM) | 0.03 (≈ 0.0449 µM) | 1 (≈ 1.5 µM) | 1 (≈ 1.5 µM) | 2 (≈ 2.99 µM) | > 8 | 0.06 (≈ 0.0897 µM) | 2 (≈ 2.99 µM) | 1 (≈ 1.5 µM) | 2 (≈ 2.99 µM) | > 8 | 8 (≈ 12 µM) | 0.25 (≈ 0.374 µM) | 0.5 (≈ 0.748 µM) | 0.5 (≈ 0.748 µM) | –
2 | CC1(C)[C@H](NC(=O)/C(=N\O[C@@H](COc2ccc3c(c2)CN(C(=N)N(CCCN)CCCN)C3)C(=O)O)c2csc(N)n2)C(=O)N1OS(=O)(=O)O [Compound 32] | 0.06 (≈ 0.081 µM) | 2 (≈ 2.7 µM) | 4 (≈ 5.4 µM) | 0.06 (≈ 0.081 µM) | 0.125 (≈ 0.169 µM) | 0.25 (≈ 0.337 µM) | < 0.015 | 0.125 (≈ 0.169 µM) | 0.5 (≈ 0.675 µM) | 0.125 (≈ 0.169 µM) | 4 (≈ 5.4 µM) | 0.03 (≈ 0.0405 µM) | 0.5 (≈ 0.675 µM) | 0.25 (≈ 0.337 µM) | 2 (≈ 2.7 µM) | 4 (≈ 5.4 µM) | 2 (≈ 2.7 µM) | 0.03 (≈ 0.0405 µM) | 0.06 (≈ 0.081 µM) | 0.06 (≈ 0.081 µM) | MIC range [10]: 0.06 to 4 µg/mL
3 | CC1(C)[C@H](NC(=O)/C(=N\O[C@@H](COc2ccc3c(c2)CN(C(=N)N[C@@H]2CCCNC2)C3)C(=O)O)c2csc(N)n2)C(=O)N1OS(=O)(=O)O [Compound 41] | 0.125 (≈ 0.176 µM) | > 8 | > 8 | 0.125 (≈ 0.176 µM) | 0.25 (≈ 0.352 µM) | 0.25 (≈ 0.352 µM) | < 0.015 | 0.25 (≈ 0.352 µM) | 0.5 (≈ 0.704 µM) | 1 (≈ 1.41 µM) | > 8 | 0.06 (≈ 0.0845 µM) | 1 (≈ 1.41 µM) | 0.5 (≈ 0.704 µM) | 2 (≈ 2.82 µM) | > 8 | 4 (≈ 5.64 µM) | 0.06 (≈ 0.0845 µM) | 0.125 (≈ 0.176 µM) | 0.125 (≈ 0.176 µM) | –
4 | CC1(C)[C@H](NC(=O)/C(=N\O[C@@H](COc2ccc3c(c2)CN(C(=N)NOCCN)C3)C(=O)O)c2csc(N)n2)C(=O)N1OS(=O)(=O)O [Compound 43] | 0.25 (≈ 0.365 µM) | > 8 | > 8 | 0.5 (≈ 0.729 µM) | 1 (≈ 1.46 µM) | 0.5 (≈ 0.729 µM) | 0.06 (≈ 0.0875 µM) | 1 (≈ 1.46 µM) | 2 (≈ 2.92 µM) | 2 (≈ 2.92 µM) | > 8 | 0.125 (≈ 0.182 µM) | 2 (≈ 2.92 µM) | 1 (≈ 1.46 µM) | 8 (≈ 11.7 µM) | > 8 | > 8 | 0.125 (≈ 0.182 µM) | 0.5 (≈ 0.729 µM) | 0.5 (≈ 0.729 µM) | –
5 | CC1(C)[C@H](NC(=O)/C(=N\O[C@@H](COc2ccc3c(c2)CN(C(=N)NCCN)C3)C(=O)O)c2csc(N)n2)C(=O)N1OS(=O)(=O)O [Compound 44] | 0.06 (≈ 0.0896 µM) | 8 (≈ 11.9 µM) | 8 (≈ 11.9 µM) | 0.125 (≈ 0.187 µM) | 0.25 (≈ 0.373 µM) | 0.25 (≈ 0.373 µM) | < 0.015 | 0.25 (≈ 0.373 µM) | 0.5 (≈ 0.747 µM) | 0.5 (≈ 0.747 µM) | 8 (≈ 11.9 µM) | 0.03 (≈ 0.0448 µM) | 0.5 (≈ 0.747 µM) | 0.25 (≈ 0.373 µM) | 1 (≈ 1.49 µM) | > 8 | 2 (≈ 2.99 µM) | 0.03 (≈ 0.0448 µM) | 0.125 (≈ 0.187 µM) | 0.125 (≈ 0.187 µM) | –
6 | CC1(C)[C@H](NC(=O)/C(=N\O[C@@H](COc2ccc3c(c2)CN(/C(=N\[C@@H]2CCCNC2)N[C@@H]2CCCNC2)C3)C(=O)O)c2csc(N)n2)C(=O)N1OS(=O)(=O)O [Compound 46] | 0.125 (≈ 0.158 µM) | 8 (≈ 10.1 µM) | 8 (≈ 10.1 µM) | 0.125 (≈ 0.158 µM) | 0.5 (≈ 0.631 µM) | 0.25 (≈ 0.315 µM) | < 0.015 | 0.25 (≈ 0.315 µM) | 1 (≈ 1.26 µM) | 1 (≈ 1.26 µM) | 8 (≈ 10.1 µM) | 0.125 (≈ 0.158 µM) | 1 (≈ 1.26 µM) | 0.5 (≈ 0.631 µM) | 4 (≈ 5.04 µM) | > 8 | 4 (≈ 5.04 µM) | 0.06 (≈ 0.0757 µM) | 0.125 (≈ 0.158 µM) | 0.125 (≈ 0.158 µM) | –
